Here are results for one molecule from US20210393932A1, “DERMAL PATCHES AND GLASS SWABS FOR APPLICATION OF TOPICAL IMMUNOSENSITIZERS” (Squarex, LLC, priority 2020, published 2021).

Several values for one entry are separate records, joined by “and”; a condition that tells them apart may be missing. Equal values may be shown once.

Data set [1] can be described thus: HPLC analysis of test article vials and patch controls in air (mini-pig study). The data set is classed as physicochemical. The procedure: Squaric acid dibutyl ester (SADBE) at 2% (w/v) concentration in dimethylsulfoxide (DMSO) was added to a skin patch for dermal dosing of SADBE to test for a delayed-type hypersensitivity response or other skin irritation. In the laboratories of Squarex HPLC analysis was conducted to analyze for SADBE content, for analysis of the dose formulation prepared by APS and to determine stability of the test article in the dermal patches during the application time and to test for residual SADBE in the dermal patches after 12 hours applied to the animals.
The skin patches consisted of a polymer backing layer similar to 3M 9916 polyester nonwoven backing layer with adhesive, 3M 9733 polyester film laminate barrier layer, and Precision Fabrics Group 0700-00010 polyester gauze layer. The gauze was heat sealed to the barrier layer. The gauze patch area was 1.53 cm^2.
(§1) The tubes of DMSO with patches were transported to the Squarex laboratory, shaken at 200 rpm for 30 minutes to overnight, and then the DMSO from each tube was placed in an injection vial and analyzed for SADBE content by HPLC on a C18 column with the program SADBE3-50 ul. SADBE elutes in this program at about 24.0 minutes and absorbs at 255 nm, so the area of the 24.0 min peak at 255 nm was used to quantify SADBE. The SADBE degradation product squaric acid monobutyl ester (SAMBE) was also quantified by 255 nm area under the curve at the elution time of 12.7 minutes.
The test article vials of 2%, 6%, and 18% SADBE dissolved in DMSO complied with specifications and had the predicted concentrations of SADBE at 24 hours after preparation.
The results indicated the SADBE was stable for more than 12 hours in the patches when not exposed to animal skin. There was no apparent loss of SADBE or conversion of SADBE to SAMBE.

The nature of data set [2]: Residual SADBE and SAMBE in patches after 12 hours on mini-pigs. Type of data set: in vivo, Gottingen miniswine. To be noted: for SADBE as % of expected (remaining in patch): 12 hours on mini-pigs. As to the method: as §1, with “Patches were removed from the pigs at the indicated times and immediately the reservoir portion of the patch was cut out and placed in a 50 ml tube with 10 ml of DMSO. The tubes” for “The tubes”

Where [3] appears, read: 2% patch control, 20 ul, >12 hours in air.
[4] abbreviates: 2% vial, SADBE in DMSO, 24 hours after preparation.
Where [5] appears, read: 6% patch control, 20 ul, >12 hours in air.
[6] abbreviates: 6% vial, SADBE in DMSO, 24 hours after preparation.
The mark [7] stands for this setting: 18% vial, SADBE in DMSO, 24 hours after preparation.

In the case of `CCCCOc1c(OCCCC)c(=O)c1=O` [SADBE, squaric acid dibutyl ester], the “% of expected SADBE” value in data set [1] (setting [3]) stood at 97.7%; in data set [1] (setting [4]) it was 100.8%; in data set [1] (setting [5]), 96.8%; in data set [1] (setting [6]), 97.5%; in data set [1] (setting [7]), 104.4%. Besides, the “SAMBE as percent of SADBE” value in data set [1] (setting [3]) stood at 0.86%; in data set [1] (setting [4]) it was 0.88%; in data set [1] (setting [5]), 0.96%; in data set [1] (setting [6]), 0.96%; in data set [1] (setting [7]) it was 1.00%. Moreover, the “time SADBE was stable in the patches” value in data set [1] (patches not exposed to animal skin, no apparent loss or conversion to SAMBE) is recorded as “more than 12 hours”. For the same molecule, the “SADBE apparently transferred into the mini pig skin” value in data set [2] (2% patches, 12 hours) is given as “about 89%”. Further, the “SADBE as % of expected (remaining in patch)” value in data set [2] (2% patches, individual animals) is 7.0% and 14.6%; in data set [2] (6% patches, average of 2 animals) it was 35% and 35.4%; in data set [2] (6% patches, individual animals), 29.9% and 40.8%; in data set [2] (18% patches, average of 2 animals), 65% and 65.5%; in data set [2] (18% patches, individual animals) it was 65.2% and 65.8%.
